{"source": "patent US20240101546A1", "about": "“HETEROARYL-ACETYLENES, PHARMACEUTICAL COMPOSITIONS THEREOF, AND THEIR THERAPEUTIC APPLICATIONS” (Eubulus Biotherapeutics Inc., priority 2020, published 2024)"}
{"test_system": "hepatocellular carcinoma cell line Hub-7", "assay": "Cell proliferation assay, Hub-7 (CELL-TITER GLO)", "type": "cell-based", "conditions": "Hub-7 cells, 24 h incubation, cell viability by CELL-TITER GLO, top concentration 10 μM; read-out: EC50, Inhibition of Hub-7 Cell Proliferation", "procedure": "The activity of a compound was determined in a cell proliferation assay using the hepatocellular carcinoma cell line Hub-7. Cells (4,000 cells per well) were seeded in a 96-well tissue culture plate. After incubated overnight, the compound was added at predetermined concentrations, starting with 10 μM and followed by 3-fold serial dilution. After the cells were incubated for 24 h, cell viability was determined using a CELL-TITER GLO® assay. The CELL-TITER GLO® reagent (50 μL) was added to each well and the luminescence was measured by a multimode microplate reader after a brief period of shaking. EC50 values were determined for the compound. The results are summarized in Table 1, wherein A represents a value no greater than 200 nM, B represents a value greater than 200 nM but no greater than 1 μM, C represents a value greater than 1 μM but no greater than 5 μM, and D represents a value greater than 5 μM.", "units": {"EC50": "nM"}}
{"smiles": "C#Cc1nc(C(=O)NCCc2ccc(-c3cccc4nccnc34)cc2)cs1", "note": "[Compound C11, 2-Ethynyl-N-(4-(quinoxalin-5-yl)phenethyl)thiazole-4-carboxamide]", "EC50": "200 to 1000"}
{"smiles": "C#Cc1nc(C(=O)NCCc2ccc(-c3ccccc3C(=O)NC)cc2)cs1", "note": "[Compound C12, 2-Ethynyl-N-(2-(2′-(methylcarbamoyl)-[1,1′-biphenyl]-4-yl)ethyl)thiazole-4-carboxamide]", "EC50": "1000 to 5000"}
{"smiles": "C#Cc1nc(C(=O)NCCc2ccc(-c3cccc4c3C(=O)NC4)cc2)cs1", "note": "[Compound C13, 2-Ethynyl-N-(4-(3-oxoisoindolin-4-yl)phenethyl)thiazole-4-carboxamide]", "EC50": "200 to 1000"}
{"smiles": "C#Cc1nc(C(=O)NCCc2ccc(-c3cccc4c3C(=O)C(=O)N4)cc2)cs1", "note": "[Compound C14, N-(4-(2,3-Dioxoindolin-4-yl)phenethyl)-2-ethynylthiazole-4-carboxamide]", "EC50": "200 to 1000"}
{"smiles": "C#Cc1nc(C(=O)NCCc2ccc(-c3ccccc3S(C)(=O)=O)cc2)cs1", "note": "[Compound C15, 2-Ethynyl-N-(2-(2′-(methylsulfonyl)-[1,1′-biphenyl]-4-yl)ethyl)thiazole-4-carboxamide]", "EC50": "200 to 1000"}
{"smiles": "C#Cc1nc(C(=O)NCCc2ccc(-c3cccc4ccnc(O)c34)cc2)cs1", "note": "[Compound C16, 2-Ethynyl-N-(4-(1-hydroxyisoquinolin-8-yl)phenethyl)thiazole-4-carboxamide]", "EC50": "200 to 1000"}
{"smiles": "C#Cc1nc(C(=O)NCCc2ccc(-c3cccc4c3CNC4=O)cc2)cs1", "note": "[Compound C17, 2-Ethynyl-N-(4-(1-oxoisoindolin-4-yl)phenethyl)thiazole-4-carboxamide]", "EC50": "≤ 200"}
{"smiles": "C#Cc1nc(C(=O)NCCc2ccc(-c3cccc4c3C(=O)CC4)cc2)cs1", "note": "[Compound C18, 2-Ethynyl-N-(4-(3-oxo-2,3-dihydro-1H-inden-4-yl)phenethyl)thiazole-4-carboxamide]", "EC50": "200 to 1000"}
{"smiles": "C#Cc1nc(C(=O)NCCc2ccc(-c3cncc4ncsc34)cc2)cs1", "note": "[Compound C19, 2-Ethynyl-N-(4-(thiazolo[4,5-c]pyridin-7-yl)phenethyl)thiazole-4-carboxamide]", "EC50": "200 to 1000"}
{"smiles": "C#Cc1nc(C(=O)NCCc2ccc(-c3ccccc3S(=O)(=O)NC)cc2)cs1", "note": "[Compound C20, 2-Ethynyl-N-(2-(2′-(N-methylsulfamoyl)-[1,1′-biphenyl]-4-yl)ethyl)thiazole-4-carboxamide]", "EC50": "200 to 1000"}
{"smiles": "C#Cc1nc(C(=O)NCCc2ccc(-c3cccc4cnccc34)cc2)cs1", "note": "[Compound C21, 2-Ethynyl-N-(4-(isoquinolin-5-yl)phenethyl)thiazole-4-carboxamide]", "EC50": "≤ 200"}
{"smiles": "C#Cc1nc(C(=O)NCCc2ccc(-c3cccc4c3CN(C)C4=O)cc2)cs1", "note": "[Compound C22, 2-Ethynyl-N-(4-(2-methyl-1-oxoisoindolin-4-yl)phenethyl)thiazole-4-carboxamide]", "EC50": "200 to 1000"}
{"smiles": "C#Cc1nc(C(=O)NCCc2ccc(-c3cccc4ncccc34)cc2)cs1", "note": "[Compound C23, 2-Ethynyl-N-(4-(quinolin-5-yl)phenethyl)thiazole-4-carboxamide]", "EC50": "200 to 1000"}
{"smiles": "C#Cc1nc(C(=O)NCCc2ccc(-c3cccc4ncncc34)cc2)cs1", "note": "[Compound C24, 2-Ethynyl-N-(4-(quinazolin-5-yl)phenethyl)thiazole-4-carboxamide]", "EC50": "≤ 200"}
{"smiles": "C#Cc1nc(C(=O)NCCc2ccc(-c3ccc4scnc4c3)cc2)cs1", "note": "[Compound C25, N-(4-(Benzo[d]thiazol-5-yl)phenethyl)-2-ethynylthiazole-4-carboxamide]", "EC50": "200 to 1000"}
{"smiles": "C#Cc1nc(C(=O)NCCc2cccc(-c3cccc4c3CC(=O)N4C)c2)cs1", "note": "[Compound C26, 2-Ethynyl-N-(3-(1-methyl-2-oxoindolin-4-yl)phenethyl)thiazole-4-carboxamide]", "EC50": "1000 to 5000"}
{"smiles": "C#Cc1nc(C(=O)NCCc2cccc(-c3cccc4c3CC(=O)N4)c2)cs1", "note": "[Compound C27, 2-Ethynyl-N-(3-(2-oxoindolin-4-yl)phenethyl)thiazole-4-carboxamide]", "EC50": "200 to 1000"}
{"smiles": "C#Cc1nc(C(=O)NCc2ccc(-c3cccc4[nH]ccc34)cc2)cs1", "note": "[Compound C28, N-(4-(1H-Indol-4-yl)benzyl)-2-ethynylthiazole-4-carboxamide]", "EC50": "1000 to 5000"}
{"smiles": "C#Cc1nc(C(=O)NCCc2cccc(-c3cccc4nn(C)cc34)c2)cs1", "note": "[Compound C29, 2-Ethynyl-N-(3-(2-methyl-2H-indazol-4-yl)phenethyl)thiazole-4-carboxamide]", "EC50": "200 to 1000"}
{"smiles": "C#Cc1nc(C(=O)NCCc2cccc(-c3cccc4c3cnn4C)c2)cs1", "note": "[Compound C30, 2-Ethynyl-N-(3-(1-methyl-1H-indazol-4-yl)phenethyl)thiazole-4-carboxamide]", "EC50": "1000 to 5000"}
{"smiles": "C#Cc1nc(C(=O)NCCc2ccc(-c3cccc4scnc34)cc2)cs1", "note": "[Compound C31, N-(4-(Benzo[d]thiazol-4-yl)phenethyl)-2-ethynylthiazole-4-carboxamide]", "EC50": "200 to 1000"}
{"smiles": "C#Cc1nc(C(=O)NCCc2ccc(-c3cccc4nn(C)cc34)cc2)cs1", "note": "[Compound C32, 2-Ethynyl-N-(4-(2-methyl-2H-indazol-4-yl)phenethyl)thiazole-4-carboxamide]", "EC50": "200 to 1000"}
{"smiles": "C#Cc1nc(C(=O)NCCc2ccc(-c3cccc4c3cnn4C)cc2)cs1", "note": "[Compound C33, 2-Ethynyl-N-(4-(1-methyl-1H-indazol-4-yl)phenethyl)thiazole-4-carboxamide]", "EC50": "200 to 1000"}
{"smiles": "C#Cc1nc(C(=O)NCCc2ccc(-c3cccc4ncsc34)cc2)cs1", "note": "[Compound C34, N-(4-(Benzo[d]thiazol-7-yl)phenethyl)-2-ethynylthiazole-4-carboxamide]", "EC50": "≤ 200"}
{"smiles": "C#Cc1nc(C(=O)NCCc2cccc(-c3cccc4c3ccn4C)c2)cs1", "note": "[Compound C35, 2-Ethynyl-N-(3-(1-methyl-1H-indol-4-yl)phenethyl)thiazole-4-carboxamide]", "EC50": "200 to 1000"}
{"smiles": "C#Cc1nc(C(=O)NCCc2cccc(-c3cccc4[nH]ccc34)c2)cs1", "note": "[Compound C36, N-(3-(1H-Indol-4-yl)phenethyl)-2-ethynylthiazole-4-carboxamide]", "EC50": "200 to 1000"}
{"smiles": "C#Cc1nc(C(=O)NCc2ccc(-c3cccc4c3CC(=O)N4)cc2)cs1", "note": "[Compound C37, 2-Ethynyl-N-(4-(2-oxoindolin-4-yl)benzyl)thiazole-4-carboxamide]", "EC50": "1000 to 5000"}
{"smiles": "C#Cc1nc(C(=O)NCCc2cccc(-c3cccnc3)c2)cs1", "note": "[Compound C38, 2-Ethynyl-N-(3-(pyridin-3-yl)phenethyl)thiazole-4-carboxamide]", "EC50": "1000 to 5000"}
{"smiles": "C#Cc1nc(C(=O)NCCc2cccc(-c3cccc4[nH]ncc34)c2)cs1", "note": "[Compound C39, N-(3-(1H-Indazol-4-yl)phenethyl)-2-ethynylthiazole-4-carboxamide]", "EC50": "200 to 1000"}
{"smiles": "C#Cc1nc(C(=O)NCc2ccc(-c3cccc4[nH]ncc34)cc2)cs1", "note": "[Compound C40, N-(4-(1H-Indazol-4-yl)benzyl)-2-ethynylthiazole-4-carboxamide]", "EC50": "1000 to 5000"}
{"smiles": "C#Cc1nc(C(=O)NCCc2ccc(-c3ccn(C)n3)cc2)cs1", "note": "[Compound C41, 2-Ethynyl-N-(4-(1-methyl-1H-pyrazol-3-yl)phenethyl)thiazole-4-carboxamide]", "EC50": "1000 to 5000"}
{"smiles": "C#Cc1nc(C(=O)NCCc2ccc(-c3ccc4ncsc4c3)cc2)cs1", "note": "[Compound C42, N-(4-(Benzo[d]thiazol-6-yl)phenethyl)-2-ethynylthiazole-4-carboxamide]", "EC50": "200 to 1000"}
{"smiles": "C#Cc1nc(C(=O)NCCc2ccc(-c3cccc4c3CC(=O)N4C)cc2)cs1", "note": "[Compound C43, 2-Ethynyl-N-(4-(1-methyl-2-oxoindolin-4-yl)phenethyl)thiazole-4-carboxamide]", "EC50": "200 to 1000"}
{"smiles": "C#Cc1nc(C(=O)NCc2ccc3ccccc3n2)cs1", "note": "[Compound C44, 2-ethynyl-N-(quinolin-2-ylmethyl)thiazole-4-carboxamide]", "EC50": "≤ 200"}
{"smiles": "C#Cc1nc(C(=O)NCCc2ccccc2C#N)cs1", "note": "[Compound C45, N-(2-Cyanophenethyl)-2-ethynylthiazole-4-carboxamide]", "EC50": "1000 to 5000"}
{"smiles": "C#Cc1nc(C(=O)NCc2cccc(CC(=O)OC)c2)cs1", "note": "[Compound C46, Methyl 2-(3-((2-ethynylthiazole-4-carboxamido)methyl)phenyl)acetate]", "EC50": "200 to 1000"}
{"smiles": "C#Cc1nc(C(=O)NCc2cccc(CC(N)=O)c2)cs1", "note": "[Compound C47, N-(3-(2-Amino-2-oxoethyl)benzyl)-2-ethynylthiazole-4-carboxamide]", "EC50": "1000 to 5000"}
{"smiles": "C#Cc1nc(C(=O)NCCc2ccc(-c3cccc4c3CC(=O)N4)cc2)cs1", "note": "[Compound C48, 2-Ethynyl-N-(4-(2-oxoindolin-4-yl)phenethyl)thiazole-4-carboxamide]", "EC50": "200 to 1000"}
{"smiles": "C#Cc1nc(C(=O)NCCc2ccc(-c3cccc4[nH]ncc34)cc2)cs1", "note": "[Compound C49, N-(4-(1H-Indazol-4-yl)phenethyl)-2-ethynylthiazole-4-carboxamide]", "EC50": "≤ 200"}
{"smiles": "C#Cc1nc(C(=O)NCCc2ccc(-c3cccc4c3ccn4C)cc2)cs1", "note": "[Compound C50, 2-Ethynyl-N-(4-(1-methyl-1H-indol-4-yl)phenethyl)thiazole-4-carboxamide]", "EC50": "≤ 200"}
{"smiles": "C#Cc1nc(C(=O)NCCc2ccc(-c3cccc4[nH]ccc34)cc2)cs1", "note": "[Compound C51, N-(4-(1H-Indol-4-yl)phenethyl)-2-ethynylthiazole-4-carboxamide]", "EC50": "200 to 1000"}
{"smiles": "C#Cc1nc(C(=O)NCc2cccc(Cl)c2)c(C)s1", "note": "[Compound C52, N-(3-Chlorobenzyl)-2-ethynyl-5-methylthiazole-4-carboxamide]", "EC50": "200 to 1000"}
{"smiles": "C#Cc1nc(C(=O)NCCc2ccc(-c3cscn3)cc2)cs1", "note": "[Compound C53, 2-Ethynyl-N-(4-(thiazol-4-yl)phenethyl)thiazole-4-carboxamide]", "EC50": "200 to 1000"}
